The values below come from patent US20240383908A1, “SYNTHESIS AND APPLICATION OF PHOSPHATASE DEGRADER” (HINOVA PHARMACEUTICALS INC., priority 2021, published 2024).

The target in this test is T1, SHP2 protein (Homo sapiens, UniProt Q06124).
T1 sequence (Q06124 1-593): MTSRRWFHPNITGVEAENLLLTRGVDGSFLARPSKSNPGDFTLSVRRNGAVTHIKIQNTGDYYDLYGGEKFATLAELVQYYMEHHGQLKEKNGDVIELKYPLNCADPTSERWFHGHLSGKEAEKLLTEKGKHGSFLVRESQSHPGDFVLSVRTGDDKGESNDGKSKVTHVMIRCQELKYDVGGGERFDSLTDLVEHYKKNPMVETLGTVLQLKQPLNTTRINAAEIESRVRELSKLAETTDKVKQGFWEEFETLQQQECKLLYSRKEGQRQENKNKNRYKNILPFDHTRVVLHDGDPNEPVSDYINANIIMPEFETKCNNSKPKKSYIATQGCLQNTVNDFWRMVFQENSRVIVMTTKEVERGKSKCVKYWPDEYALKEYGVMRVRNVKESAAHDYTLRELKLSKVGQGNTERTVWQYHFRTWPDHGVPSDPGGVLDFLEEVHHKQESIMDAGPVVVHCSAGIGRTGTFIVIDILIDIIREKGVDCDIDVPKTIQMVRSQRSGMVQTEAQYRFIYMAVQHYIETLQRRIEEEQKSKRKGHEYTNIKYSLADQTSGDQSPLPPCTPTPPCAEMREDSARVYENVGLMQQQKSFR
The test is described as follows: Degradation activity on SHP2 protein in MIA Paca-2 cells (Western blot, DC50). Format: cell-based. More on the design: endogenous in cells; host or cells: MIA Paca-2 cells. Conditions: read-out: Degradation activity for differenct cell lines MIA Paca-2 (DC50). The method, boiled down: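 Cells were treated 24 h at 37 °C with compound (0.1–100 nM final, 0.1% DMSO). SHP2 was measured by Western blot with GAPDH as loading control, densitometry normalized to DMSO (100%). DC50, the concentration giving 50% degradation, came from a dose-response fit.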
On the technique in general: Immunoblotting shows a protein as a band on a membrane.

As to `CC1(N)CCN(c2cnc(Sc3cccc(NC(=O)C4CC(N5CCN(c6ccc7c(c6)CN(C6CCC(=O)NC6=O)C7=O)CC5)C4)c3)cn2)CC1` (stereo not drawn) [Compound 269], the DC50 was > 1 µM.

As for `C[C@@H]1OCC2(CCN(c3cnc(Sc4cccc(NC(=O)[C@H]5C[C@@H]5c5ccc(N6CCN(c7ccc(C(=O)N8CCN(c9ccc%10c(c9)CN(C9CCC(=O)NC9=O)C%10=O)CC8)nn7)CC6)c(F)c5)c4)cn3)CC2)[C@@H]1N` (stereo partly drawn) [Compound 284], the half-maximal degradation concentration (DC50) is < 0.1 µM. Under `Cc1cc(N2CCC(N3CC=C(c4ccc(C(=O)NCc5ccc6c(c5)CN(C5CCC(=O)NC5=O)C6=O)nc4F)CC3)CC2)ccc1C(=O)Nc1cccc(Sc2cnc(N3CCC(C)(N)CC3)cn2)c1` (stereo not drawn) [Compound 468] stands < 0.1 µM; under `CC1(N)CCN(c2cnc(Sc3cccc(NC(=O)c4ccc(C5=CCC(N6CC=C(c7ccnc(C(=O)NCc8ccc9c(c8)CN(C8CCC(=O)NC8=O)C9=O)c7)C6)CC5)c(F)c4)c3)cn2)CC1` (stereo not drawn) [Compound 416], > 1 µM; under `CC1(N)CCN(c2cnc(Sc3cccc(NC(=O)c4ccc(N5CCC(N6CC=C(c7ccc(C(=O)Nc8ccc9c(c8)CN(C8CCC(=O)NC8=O)C9=O)nn7)CC6)CC5)cc4)c3)cn2)CC1` (stereo not drawn) [Compound 330], < 0.1 µM. `CC1(N)CCN(c2cnc(Sc3cccc(NC(=O)C4CC(N5CC=C(c6ccc(C(=O)NCc7ccc8c(c7)C(=O)N(C7CCC(=O)NC7=O)C8)nc6)CC5)C4)c3)cn2)CC1` (stereo not drawn) [Compound 302]: the DC50 was > 1 µM. In the case of `CC1(N)CCN(c2cnc(Sc3cccc(NC(=O)c4ccc(N5CCC(N6CCN(c7ccc(C(=O)NCc8ccc9c(c8)CN(C8CCC(=O)NC8=O)C9=O)nn7)CC6)CC5)nn4)c3)cn2)CC1` (stereo not drawn) [Compound 498], the DC50 lay within 0.1 to 1 µM. As to `Cc1cc(C(=O)Nc2cccc(Sc3cnc(N4CCC(C)(N)CC4)cn3)c2)ccc1N1CCC(N2CC=C(c3cnc(C(=O)NCc4ccc5c(c4)CN(C4CCC(=O)NC4=O)C5=O)cc3Cl)CC2)CC1` (stereo not drawn) [Compound 452], the half-maximal degradation concentration (DC50) is < 0.1 µM. For the compound `CC1(N)CCN(c2cnc(Sc3cccc(NC(=O)CCCCCCN4CCC5(CC4)CC(=O)N(CC(=O)NCc4ccc6c(c4)CN(C4CCC(=O)NC4=O)C6=O)C5)c3)cn2)CC1` (stereo not drawn) [Compound 215], the DC50 was > 1 µM.

For `Cc1cc(C(=O)Nc2cccc(Sc3cnc(N4CCC(C)(N)CC4)cn3)c2)ccc1N1CCC(N2CCN(c3nnc(C(=O)NCc4ccc5c(c4)CN(C4CCC(=O)NC4=O)C5=O)cc3Cl)CC2)CC1` (stereo not drawn) [Compound 507], the DC50 was < 0.1 µM.

In the case of `CC1(N)CCN(c2cnc(Sc3cccc(NC(=O)C4CC45CCC(N4CC=C(c6ccc(C(=O)Nc7ccc8c(c7)CN(C7CCC(=O)NC7=O)C8=O)nn6)CC4)CC5)c3)cn2)CC1` (single isomer, unassigned) [Compound 321], the half-maximal degradation concentration (DC50) is < 0.1 µM. On to `CC1(N)CCN(c2cnc(Sc3cccc(NC(=O)c4ccc(N5CCC(N6CCN(c7nnc(C(=O)NCc8ccc9c(c8)CN(C8CCC(=O)NC8=O)C9=O)cc7Cl)CC6)CC5)nc4)c3)cn2)CC1` (stereo not drawn) [Compound 492], for which the DC50 is < 0.1 µM. Under `CC1(N)CCN(c2cnc(Sc3cccc(NC(=O)C4CC45CCC(N4CC=C(c6ccc(C(=O)N7CCN(c8ccc9c(c8)CN(C8CCC(=O)NC8=O)C9=O)CC7)nc6)CC4)CC5)c3)cn2)CC1` (single isomer, unassigned) [Compound 323] stands > 1 µM; under `C[C@@H]1OCC2(CCN(c3cnc(Sc4cccc(NC(=O)c5ccc(N6CCC(N7CCN(c8ccc9c(c8)CN(C8CCC(=O)NC8=O)C9=O)CC7)CC6)c(F)c5)c4)cn3)CC2)[C@@H]1N` (stereo partly drawn) [Compound 280], > 1 µM. As for `Cc1cc(N2CCC(N3CC=C(c4ccc(C(=O)NCc5ccc6c(c5)CN(C5CCC(=O)NC5=O)C6=O)cc4)CC3)CC2)ccc1C(=O)Nc1cccc(Sc2cnc(N3CCC(C)(N)CC3)cn2)c1` (stereo not drawn) [Compound 454], the half-maximal degradation concentration (DC50) fell in the range of 0.1 to 1 µM. Regarding `CC1(N)CCN(c2cnc(Sc3cccc(NC(=O)c4ccc(N5CCC(N6CCN(c7ccc(C(=O)NCc8ccc9c(c8)CN(C8CCC(=O)NC8=O)C9=O)nn7)CC6)CC5)cn4)c3)cn2)CC1` (stereo not drawn) [Compound 447], the half-maximal degradation concentration (DC50) is > 1 µM.

As for `NC1CCN(c2cnc(Sc3cccc(NC(=O)c4ccc(N5CCC(N6CC=C(c7ccc(C(=O)NCc8ccc9c(c8)CN(C8CCC(=O)NC8=O)C9=O)nn7)CC6)CC5)cc4)c3)cn2)CC1F` (stereo not drawn) [Compound 376], the half-maximal degradation concentration (DC50) is > 1 µM. With `Cc1cc(N2CCC(N3CC=C(c4cnc(C(=O)NCc5ccc6c(c5)CN(C5CCC(=O)NC5=O)C6=O)c(F)c4)CC3)CC2)ccc1C(=O)Nc1cccc(Sc2cnc(N3CCC(C)(N)CC3)cn2)c1` (stereo not drawn) [Compound 438], the half-maximal degradation concentration (DC50) is < 0.1 µM. The same measure for `CC1(N)CCN(c2cnc(Sc3cccc(NC(=O)c4ccc(N5CCC(N6CC=C(c7ccc(C(=O)NCc8ccc9c(c8)CN(C8CCC(=O)NC8=O)C9=O)nc7)CC6)CC5)cc4)c3)cn2)CC1` (stereo not drawn) [Compound 312]: < 0.1 µM; for `C[C@@H]1OCC2(CCN(c3cnc(Sc4cccc(NC(=O)C5CC(N6CCN(c7ccc(C(=O)NCc8ccc9c(c8)CN(C8CCC(=O)NC8=O)C9=O)nn7)CC6)C5)c4)cn3)CC2)[C@@H]1N` (stereo partly drawn) [Compound 475]: > 1 µM. Turning to `CC1(N)CCN(c2cnc(Sc3cccc(NCc4ccc(N5CCC(N6CCN(c7ccc8c(c7)C(=O)N(C7CCC(=O)NC7=O)C8)CC6)CC5)c(F)c4)c3)cn2)CC1` (stereo not drawn) [Compound 291], the half-maximal degradation concentration (DC50) was > 1 µM. For `CC1(N)CCN(c2cnc(Sc3cccc(NC(=O)c4ccc(-c5ccc(N6CCC7(CC6)CC(C(=O)NCc6ccc8c(c6)CN(C6CCC(=O)NC6=O)C8=O)C7)cc5)cc4)c3)cn2)CC1` (stereo not drawn) [Compound 415], the half-maximal degradation concentration (DC50) is > 1 µM. `CC1(N)CCN(c2cnc(Sc3cccc(NC(=O)c4ccc(N5CCC(N6CCN(c7ccc(C(=O)NCc8ccc9c(c8)CN(C8CCC(=O)NC8=O)C9=O)nn7)CC6)CC5)cc4)c3)cn2)CC1` (stereo not drawn) [Compound 389]: the half-maximal degradation concentration (DC50) is < 0.1 µM. Take `COC(=O)NC1(C)CCN(c2cnc(Sc3cccc(NC(=O)c4ccc(N5CCC(N6CC=C(c7ccc(C(=O)NCc8ccc9c(c8)CN(C8CCC(=O)NC8=O)C9=O)nc7)CC6)CC5)c(F)c4)c3)cn2)CC1` (stereo not drawn) [Compound 424]: the half-maximal degradation concentration (DC50) is > 1 µM. Consider `CC1(N)CCN(c2cnc(Sc3cccc(NC(=O)C4CC45CCC(N4CC=C(c6ccc(C(=O)NCc7ccc8c(c7)CN(C7CCC(=O)NC7=O)C8=O)nn6)CC4)CC5)c3)cn2)CC1` (single isomer, unassigned) [Compound 318], for which the DC50 is > 1 µM. As for `CC1(N)CCN(c2cnc(Sc3cccc(NC(=O)c4ccc(N5CCC(N6CCN(c7ccc(C(=O)NCc8ccc9c(c8)CN(C8CCC(=O)NC8=O)C9=O)c(F)c7)CC6)CC5)cc4)c3)cn2)CC1` (stereo not drawn) [Compound 502], the half-maximal degradation concentration (DC50) is < 0.1 µM. Turning to `CC1(N)CCN(c2cnc(Sc3cccc(NC(=O)C4CC45CCN(c4ccc(C(=O)NCc6ccc7c(c6)CN(C6CCC(=O)NC6=O)C7=O)nn4)CC5)c3)cn2)CC1` (stereo not drawn) [Compound 299], the DC50 is > 1 µM. Take `C[C@@H]1OCC2(CCN(c3cnc(Sc4cccc(NC(=O)c5ccc(CN6CCN(c7ccc8c(c7)CN(C7CCC(=O)NC7=O)C8=O)CC6)cc5)c4)cn3)CC2)[C@@H]1N` (stereo partly drawn) [Compound 285]: the DC50 is > 1 µM. The same measure for `CC1(N)CCN(c2cnc(Sc3cccc(NC(=O)C4CCC(N5CCN(c6ccc7c(c6)CN(C6CCC(=O)NC6=O)C7=O)CC5)CC4)c3)cn2)CC1` (stereo not drawn) [Compound 271]: > 1 µM. As to `CC1(N)CCN(c2cnc(Sc3cccc(NC(=O)C(C)(C)c4ccc(N5CCN(c6ccc(C(=O)NCc7ccc8c(c7)CN(C7CCC(=O)NC7=O)C8=O)nc6)CC5)cc4)c3)cn2)CC1` (stereo not drawn) [Compound 331], the 50% degradation concentration (DC50) was > 1 µM.

What is called DC50 is the concentration giving 50% degradation.
